Like-named read-outs stand apart in the source and are kept apart here. Where a SMILES comes first, the peptide text is derived from it. Bridges are numbered along the chain shown (N, C = ends). [ ]: non-standard residue; d: D form. 2Nal = N[C@@H](Cc1ccc2ccccc2c1)C(=O)O; Cit = NC(=O)NCCC[C@H](N)C(=O)O
Experiments:
Assay type in all cases: cell-based
HIV-1 (IIIB) strain = assay: Anti-HIV activity: inhibition of MT-4 cell death by HIV infection (MTT method); settings: MT-4 CD4+ T cells infected by HIV-1 (IIIB), 37° C., 5 days, MTT; average of at least three measurements; read-out: EC50 (concentration where MT-4 cell death by HIV infection is inhibited by 50%)
Method: (§1) HIV-1 (IIIB) strain obtained from MOLT/HIV-1 (IIIB) cell previously infected by HIV-1 was used. The polypeptide of the present invention was added to MT-4 CD4^+ T cells infected by HIV in various kinds of concentrations, and a number of living cells after culturing at 37° C. for 5 days was determined by using a 3′-(4,5-dimethylthiazol-2-yl)-2,5-diphenyltetrazolinium bromide (MTT) method. Anti-HIV activity is shown by a concentration (EC50 value), where MT-4 cell death by HIV infection is inhibited by 50%. Cytotoxicity of the peptide according to the present invention was shown by a 50% survival concentration (Test I: CC50 value) by culturing virus-uninfected MT-4 cells with the polypeptide according to the present invention in various concentrations, and determining a number of living cells by the MTT method. Moreover, a number of living cells of human peripheral blood mononuclear cells (monocyte) (PBMC) was determined by trypan blue dyeing method, and shown by a 50% survival concentration (Test II: CC50 value). Respective ratios of the CC50 value and the EC50 value were shown as a selective index (SI). Obtained values were summarized in Table 3 using the conventionally known polypeptides T134 and T140, and an anti-HIV compound: 3′-azido-2′,3′-dideoxythymidine (AZT) used as a medicine as a control anti-HIV agent.

[1] = test system: virus-uninfected MT-4 cells; assay: Cytotoxicity Test I: virus-uninfected MT-4 cells, MTT method; settings: selective index, MT-4 CC50 over anti-HIV EC50
Method: as §1

[2] = as above; settings: virus-uninfected MT-4 cells, MTT method, read-out: CC50 (Test I), 50% survival concentration
Method: as §1

[3] = human, MT-4 cells (virus-uninfected)

SMILES | EC50 (HIV-1 (IIIB) strain) | also measured
C[C@@H]1NC(=O)[C@@H](CCCCN)NC(=O)[C@H](CCCCN)NC(=O)[C@H](CCCNC(=N)N)NC(=O)[C@H](Cc2ccc(O)cc2)NC(=O)[C@@H](NC(=O)[C@H](Cc2ccc3ccccc3c2)NC(=O)[C@H](CCCNC(=N)N)NC(=O)[C@@H](N)CCCNC(=N)N)CSSC[C@@H](C(=O)N[C@@H](CCCNC(=N)N)C(=O)O)NC(=O)[C@H](CCCNC(N)=O)NC(=O)[C@H](CCCNC(=N)N)NC(=O)[C@H](Cc2ccc(O)cc2)NC1=O [TA14008, H-Arg-Arg-Nal-Cys-Tyr-Arg-Lys-DLys-Ala-Tyr-Arg-Cit-Cys-Arg-OH] (H-RR[2Nal]CYRK[dK]AYR[Cit]CR-OH; disulfide 4-13) | 17 nM | –
C[C@@H]1NC(=O)[C@H](CCCNC(=N)N)NC(=O)[C@H](Cc2ccc(O)cc2)NC(=O)[C@@H](NC(=O)[C@H](Cc2ccc3ccccc3c2)NC(=O)[C@H](CCCNC(=N)N)NC(=O)[C@@H](N)CCCNC(=N)N)CSSC[C@@H](C(=O)N[C@@H](CCCNC(=N)N)C(=O)O)NC(=O)[C@H](CCCNC(N)=O)NC(=O)[C@H](CCCNC(=N)N)NC(=O)[C@H](Cc2ccc(O)cc2)NC(=O)[C@@H]2CCCN2C(=O)[C@@H](CCCCN)NC1=O [TA14006, H-Arg-Arg-Nal-Cys-Tyr-Arg-Ala-DLys-Pro-Tyr-Arg-Cit-Cys-Arg-OH] (H-RR[2Nal]CYRA[dK]PYR[Cit]CR-OH; disulfide 4-13) | 47 nM | –
N=C(N)NCCC[C@H](NC(=O)[C@@H]1CSSC[C@H](NC(=O)[C@H](Cc2ccc3ccccc3c2)NC(=O)[C@H](CCCNC(=N)N)NC(=O)[C@@H](N)CCCNC(=N)N)C(=O)N[C@@H](Cc2ccc(O)cc2)C(=O)N[C@@H](CCCNC(=N)N)C(=O)N[C@@H](CCCCN)C(=O)N[C@H](CCCCN)C(=O)N2CCC[C@H]2C(=O)N[C@@H](Cc2ccc(O)cc2)C(=O)N[C@@H](CCCNC(N)=O)C(=O)N[C@@H](CCCNC(N)=O)C(=O)N1)C(=O)O [TC14006, H-Arg-Arg-Nal-Cys-Tyr-Arg-Lys-DLys-Pro-Tyr-Cit-Cit-Cys-Arg-OH] (H-RR[2Nal]CYRK[dK]PY[Cit][Cit]CR-OH; disulfide 4-13) | 15 nM | –
C[C@@H]1NC(=O)[C@H](Cc2ccc(O)cc2)NC(=O)[C@@H](NC(=O)[C@H](Cc2ccc3ccccc3c2)NC(=O)[C@H](CCCNC(=N)N)NC(=O)[C@@H](N)CCCNC(=N)N)CSSC[C@@H](C(=O)N[C@@H](CCCNC(=N)N)C(=O)O)NC(=O)[C@H](CCCNC(N)=O)NC(=O)[C@H](CCCNC(=N)N)NC(=O)[C@H](Cc2ccc(O)cc2)NC(=O)[C@@H]2CCCN2C(=O)[C@@H](CCCCN)NC(=O)[C@H](CCCCN)NC1=O [TA14005, H-Arg-Arg-Nal-Cys-Tyr-Ala-Lys-DLys-Pro-Tyr-Arg-Cit-Cys-Arg-OH] (H-RR[2Nal]CYAK[dK]PYR[Cit]CR-OH; disulfide 4-13) | 9.3 nM | –
C[C@@H]1NC(=O)[C@@H](CCCCN)NC(=O)[C@H](CCCCN)NC(=O)[C@H](CCCN=C(N)N)NC(=O)[C@H](Cc2ccc(O)cc2)NC(=O)[C@@H](NC(=O)[C@H](Cc2ccc3ccccc3c2)NC(=O)[C@H](CCCN=C(N)N)NC(=O)[C@@H](N)CCCN=C(N)N)CSSC[C@@H](C(=O)N[C@@H](CCCN=C(N)N)C(=O)O)NC(=O)[C@H](CCCNC(N)=O)NC(=O)[C@H](CCCN=C(N)N)NC(=O)[C@H](Cc2ccc(O)cc2)NC1=O [TA14008, H-Arg-Arg-Nal-Cys-Tyr-Arg-Lys-DLys-Ala-Tyr-Arg-Cit-Cys-Arg-OH] (H-RR[2Nal]CYRK[dK]AYR[Cit]CR-OH; disulfide 4-13) | – | SI: CC50 (Test I)/EC50 [1]: >4700; CC50 [2]: > 80000 nM
N=C(N)NCCC[C@H](NC(=O)[C@@H]1CSSC[C@H](NC(=O)[C@H](Cc2c[nH]c3ccccc23)NC(=O)[C@H](CCCNC(=N)N)NC(=O)[C@@H](N)CCCNC(=N)N)C(=O)N[C@@H](Cc2ccc(O)cc2)C(=O)N[C@@H](CCCNC(=N)N)C(=O)N[C@@H](CCCCN)C(=O)N[C@H](CCCCN)C(=O)N2CCC[C@H]2C(=O)N[C@@H](Cc2ccc(O)cc2)C(=O)N[C@@H](CCCNC(=N)N)C(=O)N[C@@H](CCCNC(N)=O)C(=O)N1)C(=O)O [Compound T134, H-Arg-Arg-Trp-Cys-Tyr-Arg-Lys-DLys-Pro-Tyr-Arg-Cit-Cys-Arg-OH, reference compound] (H-RRWCYRK[dK]PYR[Cit]CR-OH; disulfide 4-13) | 8.3 nM | –
C[C@H]1NC(=O)[C@H](CCCCN)NC(=O)[C@H](CCCN=C(N)N)NC(=O)[C@H](Cc2ccc(O)cc2)NC(=O)[C@@H](NC(=O)[C@H](Cc2ccc3ccccc3c2)NC(=O)[C@H](CCCN=C(N)N)NC(=O)[C@@H](N)CCCN=C(N)N)CSSC[C@@H](C(=O)N[C@@H](CCCN=C(N)N)C(=O)O)NC(=O)[C@H](CCCNC(N)=O)NC(=O)[C@H](CCCN=C(N)N)NC(=O)[C@H](Cc2ccc(O)cc2)NC(=O)[C@@H]2CCCN2C1=O [TA14007, H-Arg-Arg-Nal-Cys-Tyr-Arg-Lys-DAla-Pro-Tyr-Arg-Cit-Cys-Arg-OH] (H-RR[2Nal]CYRK[dA]PYR[Cit]CR-OH; disulfide 4-13) | – | SI: CC50 (Test I)/EC50 [1]: >5200; CC50 [2, 3]: > 80000 nM
N=C(N)NCCC[C@H](NC(=O)[C@@H]1CSSC[C@H](NC(=O)[C@H](Cc2ccc3ccccc3c2)NC(=O)[C@H](CCCNC(=N)N)NC(=O)[C@@H](N)CCCNC(=N)N)C(=O)N[C@@H](Cc2ccc(O)cc2)C(=O)N[C@@H](CCCNC(N)=O)C(=O)N[C@@H](CCCCN)C(=O)N[C@H](CCCCN)C(=O)N2CCC[C@H]2C(=O)N[C@@H](Cc2ccc(O)cc2)C(=O)N[C@@H](CCCNC(=N)N)C(=O)N[C@@H](CCCNC(N)=O)C(=O)N1)C(=O)O [TC14003, H-Arg-Arg-Nal-Cys-Tyr-Cit-Lys-DLys-Pro-Tyr-Arg-Cit-Cys-Arg-OH] (H-RR[2Nal]CY[Cit]K[dK]PYR[Cit]CR-OH; disulfide 4-13) | 2.8 nM | –
C[C@@H]1NC(=O)[C@H](Cc2ccc(O)cc2)NC(=O)[C@@H](NC(=O)[C@H](Cc2ccc3ccccc3c2)NC(=O)[C@H](CCCN=C(N)N)NC(=O)[C@@H](N)CCCN=C(N)N)CSSC[C@@H](C(=O)N[C@@H](CCCN=C(N)N)C(=O)O)NC(=O)[C@H](CCCNC(N)=O)NC(=O)[C@H](CCCN=C(N)N)NC(=O)[C@H](Cc2ccc(O)cc2)NC(=O)[C@@H]2CCCN2C(=O)[C@@H](CCCCN)NC(=O)[C@H](CCCCN)NC1=O [TA14005, H-Arg-Arg-Nal-Cys-Tyr-Ala-Lys-DLys-Pro-Tyr-Arg-Cit-Cys-Arg-OH] (H-RR[2Nal]CYAK[dK]PYR[Cit]CR-OH; disulfide 4-13) | – | SI: CC50 (Test I)/EC50 [1]: >4500; CC50 [2, 3]: > 40000 nM
N=C(N)NCCC[C@H](NC(=O)[C@@H]1CSSC[C@H](NC(=O)[C@H](Cc2ccc3ccccc3c2)NC(=O)[C@H](CCCNC(=N)N)NC(=O)[C@@H](N)CCCNC(=N)N)C(=O)N[C@@H](Cc2ccc(O)cc2)C(=O)N[C@@H](CCCNC(=N)N)C(=O)N[C@@H](CCCCN)C(=O)N[C@H](CCCCN)C(=O)N2CCC[C@H]2C(=O)N[C@@H](Cc2ccc(O)cc2)C(=O)N[C@@H](CCCNC(=N)N)C(=O)N[C@@H](CCCNC(N)=O)C(=O)N1)C(=O)O [Compound T140, H-Arg-Arg-Nal-Cys-Tyr-Arg-Lys-DLys-Pro-Tyr-Arg-Cit-Cys-Arg-OH, reference compound] (H-RR[2Nal]CYRK[dK]PYR[Cit]CR-OH; disulfide 4-13) | 3.3 nM | –
C[C@@H]1NC(=O)[C@@H]2CCCN2C(=O)[C@@H](CCCCN)NC(=O)[C@H](CCCCN)NC(=O)[C@H](CCCNC(=N)N)NC(=O)[C@H](Cc2ccc(O)cc2)NC(=O)[C@@H](NC(=O)[C@H](Cc2ccc3ccccc3c2)NC(=O)[C@H](CCCNC(=N)N)NC(=O)[C@@H](N)CCCNC(=N)N)CSSC[C@@H](C(=O)N[C@@H](CCCNC(=N)N)C(=O)O)NC(=O)[C@H](CCCNC(N)=O)NC(=O)[C@H](CCCNC(=N)N)NC1=O [TA14009, H-Arg-Arg-Nal-Cys-Tyr-Arg-Lys-DLys-Pro-Ala-Arg-Cit-Cys-Arg-OH] (H-RR[2Nal]CYRK[dK]PAR[Cit]CR-OH; disulfide 4-13) | 17 nM | –
N=C(N)NCCC[C@H](NC(=O)[C@@H]1CSSC[C@H](NC(=O)[C@H](Cc2ccc3ccccc3c2)NC(=O)[C@H](CCCNC(=N)N)NC(=O)[C@@H](N)CCCNC(=N)N)C(=O)N[C@@H](Cc2ccc(O)cc2)C(=O)N[C@@H](CCCNC(=N)N)C(=O)N[C@@H](CCCNC(N)=O)C(=O)N[C@H](CCCCN)C(=O)N2CCC[C@H]2C(=O)N[C@@H](Cc2ccc(O)cc2)C(=O)N[C@@H](CCCNC(=N)N)C(=O)N[C@@H](CCCNC(N)=O)C(=O)N1)C(=O)O [TC14004, H-Arg-Arg-Nal-Cys-Tyr-Arg-Cit-DLys-Pro-Tyr-Arg-Cit-Cys-Arg-OH] (H-RR[2Nal]CYR[Cit][dK]PYR[Cit]CR-OH; disulfide 4-13) | 16 nM | –
C[C@H]1NC(=O)[C@H](CCCCN)NC(=O)[C@H](CCCNC(=N)N)NC(=O)[C@H](Cc2ccc(O)cc2)NC(=O)[C@@H](NC(=O)[C@H](Cc2ccc3ccccc3c2)NC(=O)[C@H](CCCNC(=N)N)NC(=O)[C@@H](N)CCCNC(=N)N)CSSC[C@@H](C(=O)N[C@@H](CCCNC(=N)N)C(=O)O)NC(=O)[C@H](CCCNC(N)=O)NC(=O)[C@H](CCCNC(=N)N)NC(=O)[C@H](Cc2ccc(O)cc2)NC(=O)[C@@H]2CCCN2C1=O [TA14007, H-Arg-Arg-Nal-Cys-Tyr-Arg-Lys-DAla-Pro-Tyr-Arg-Cit-Cys-Arg-OH] (H-RR[2Nal]CYRK[dA]PYR[Cit]CR-OH; disulfide 4-13) | 16 nM | –
